Measured values reported in PubChem BioAssay (NCI).
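Step 1: Grow cells in 96-well plates. Step 2: Expose to compound for 48 hours at 5 concentrations. Step 3: Interpolate endpoints linearly; if unreached, use highest concentration. GI50 is the concentration that inhibits growth by half. TGI marks complete inhibition of growth.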

How the values were obtained:
Test in all cases: NCI anticancer screen, dose series, 48 h
DMS 114 small cell lung = tested on: DMS 114 small cell lung
HOP-62 NSCLC = tested on: HOP-62 NSCLC
IGROV1 ovarian = tested on: IGROV1 ovarian
MALME-3M melanoma = tested on: MALME-3M melanoma
SK-MEL-5 melanoma = tested on: SK-MEL-5 melanoma
NCI-H23 lung = tested on: NCI-H23 lung
SN12C renal = tested on: SN12C renal
BT-549 breast = tested on: BT-549 breast
HS 578T breast = tested on: HS 578T breast

Structure (SMILES)	TGI (DMS 114 small cell lung) [µM]	TGI (HOP-62 NSCLC) [µM]	TGI (IGROV1 ovarian) [µM]	TGI (MALME-3M melanoma) [µM]	TGI (SK-MEL-5 melanoma) [µM]	GI50 (DMS 114 small cell lung) [µM]	GI50 (HOP-62 NSCLC) [µM]	GI50 (IGROV1 ovarian) [µM]	GI50 (MALME-3M melanoma) [µM]	GI50 (NCI-H23 lung) [µM]	TGI (NCI-H23 lung) [µM]	GI50 (SK-MEL-5 melanoma) [µM]	GI50 (SN12C renal) [µM]	TGI (SN12C renal) [µM]	TGI (BT-549 breast) [µM]	TGI (HS 578T breast) [µM]
COc1cc2nncc(Sc3cnnc4ccccc34)c2cc1OC	> 100	> 100	> 100	32.4	29.5											
CC(C)N(C(C)C)[PH+]1O[PH+](N(C(C)C)C(C)C)O[PH+](N(C(C)C)C(C)C)O[PH+](N(C(C)C)C(C)C)O[PH+](N(C(C)C)C(C)C)O1.[C-]#[O+].[C-]#[O+].[C-]#[O+].[C-]#[O+].[C-]#[O+].[C-]#[O+].[C-]#[O+].[Cr].[Cr] (configuration not stated)	> 100	> 100	> 100	> 100	> 100	> 100	> 100	> 100	> 100	> 100	> 100	> 100	> 100	> 100		
COC(=O)c1ccc2c(c1)C(NC(C)=O)CCc1cc(OC)c(OC)c(OC)c1-2 (configuration not stated)	0.0356	52.4	> 41.1	> 100	0.216						1.35			> 96.1	78.3	7.78
COC(=O)c1nc(NN)[nH]c(=O)c1CCCCCc1c(C(=O)OC)[nH]c(NN)cc1=O	> 100	> 100	> 100	> 100	> 100						> 100			> 100		
CC(C)c1cccc(C(C)C)c1NC(=O)C(=O)C(C(=O)c1ccccc1-c1ccccc1)C1OC(=O)c2ccccc21 (configuration not stated)	49.2		74.7	33.9	29.5						3.32			49.9		
N=C(N)SCc1cn2ccccc2n1	> 100	> 100		> 100	> 100						> 100			> 100		
